Experimental data reported in patent US20260250316A1, “CRYSTALLINE FORMS OF A MACROCYCLIC PEPTIDE ANTIBIOTIC” (Hoffmann-La Roche Inc., priority 2022, published 2026).

Key:
physchem = conditions: water, approximately 1 g equilibrated in 8.5 mL of water at 20° C. for 2 days, centrifuged, uPLC
Protocol: Approximately 1 g of substance was equilibrated in 8.5 mL of water at 20° C. for 2 days. 1 mL of suspension was centrifuged. The filtrate was analyzed by uPLC.

With `CN1C(=O)[C@H](CCCCN)NC(=O)[C@H](CCCN)NCc2cccnc2Sc2cccc(-c3ccc(C(=O)O)cc3)c2CNC(=O)[C@@H]1Cc1c[nH]c2ccccc12.Cl` [HCl salt, 4-[(11S,14S,17S)-14-(4-Aminobutyl)-11-(3-aminopropyl)-17-(1H-indol-3-ylmethyl)-16-methyl-12,15,18-trioxo-2-thia-4,10,13,16,19-pentazatricyclo[19.4.0.03,8]pentacosa-1(25),3(8),4,6,21,23-hexaen-22-yl]benzoic acid] the “Solubility compared to the free base (in words)” value (especially in aqueous media) was “dramatically increased solubility compared to the free base”.
For `CN1C(=O)[C@H](CCCCN)NC(=O)[C@H](CCCN)NCc2cccnc2Sc2cccc(-c3ccc(C(=O)O)cc3)c2CNC(=O)[C@@H]1Cc1c[nH]c2ccccc12` [Form A family free zwitterion], the solubility at 2 days (physchem) was under 1 mg/mL.
In the case of `CN1C(=O)[C@H](CCCCN)NC(=O)[C@H](CCCN)NCc2cccnc2Sc2cccc(-c3ccc(C(=O)O)cc3)c2CNC(=O)[C@@H]1Cc1c[nH]c2ccccc12` [free base, 4-[(11S,14S,17S)-14-(4-Aminobutyl)-11-(3-aminopropyl)-17-(1H-indol-3-ylmethyl)-16-methyl-12,15,18-trioxo-2-thia-4,10,13,16,19-pentazatricyclo[19.4.0.03,8]pentacosa-1(25),3(8),4,6,21,23-hexaen-22-yl]benzoic acid], the “Solubility in water (in words)” value (water) is reported as “hardly soluble in water”.
Work on `CN1C(=O)[C@H](CCCCN)NC(=O)[C@H](CCCN)NCc2cccnc2Sc2cccc(-c3ccc(C(=O)O)cc3)c2CNC(=O)[C@@H]1Cc1c[nH]c2ccccc12.Cl` [Amorphous HCl salt, 4-[(11S,14S,17S)-14-(4-Aminobutyl)-11-(3-aminopropyl)-17-(1H-indol-3-ylmethyl)-16-methyl-12,15,18-trioxo-2-thia-4,10,13,16,19-pentazatricyclo[19.4.0.03,8]pentacosa-1(25),3(8),4,6,21,23-hexaen-22-yl]benzoic acid, mono hydrochloric acid salt] yielded a Solubility (approximately 1 g equilibrated in 8.5 mL of water at 20° C. for 2 days, centrifuged, uPLC) of 177.6 mg/mL.
`CN1C(=O)[C@H](CCCCN)NC(=O)[C@H](CCCN)NCc2cccnc2Sc2cccc(-c3ccc(C(=O)O)cc3)c2CNC(=O)[C@@H]1Cc1c[nH]c2ccccc12.Cl` [Form A family HCl salt] showed a solubility at 2 days (physchem) of 124 mg/mL.
